In US7566717B2, “Substituted heterocyclic compounds” (Gilead Sciences, Inc., priority 2003, dated 2009):

System: Rat heart mitochondria (palmitoyl CoA oxidation)
Experiment: Mitochondrial assay: palmitoyl CoA oxidation
Type: biochemical
Settings: at 100 μM of test compound, 1-C14 palmitoyl CoA oxidation, 15 min at 30° C.
Method: Rat heart mitochondria were isolated by the method of Nedergard and Cannon (Methods in Enzymol. 55, 3, 1979).
Palmitoyl CoA oxidation—The Palmityl CoA oxidation was carried out in a total volume of 100 micro liters containing the following agents: 110 mM KCl, 33 mM Tris buffer at pH 8, 2 mM KPi, 2 mM MgCl2, 0.1 mM EDTA, 14.7 microM defatted BSA, 0.5 mM malic acid, 13 mM carnitine, 1 mM ADP, 52 micrograms of mitochondrial protein, and 16 microM 1-C14 palmitoyl CoA (Sp. Activity 60 mCi/mmole; 20 microCi/ml, using 5 microliters per assay). The compounds of this invention were added in a DMSO solution at the following concentrations: 100 micro molar, 30 micro molar, and 3 micro molar. In each assay, a DMSO control was used. After 15 min at 30° C., the enzymatic reaction was centrifuged (20,000 g for 1 min), and 70 microliters of the supernatant was added to an activated reverse phase silicic acid column (approximately 0.5 ml of silicic acid). The column was eluted with 2 ml of water, and 0.5 ml of the eluent was used for scintillation counting to determine the amount of C^14 trapped as C^14 bicarbonate ion.

Row | SMILES | Inhibition [%]
1 | Cc1cccc(C)c1NC(=O)CN1CCN(CC(O)CC(=O)Nc2ccccc2F)CC1 (stereo not drawn) [4-(4-{[N-(2,6-dimethylphenyl)carbamoyl]methyl}piperazinyl)-3-hydroxy-N-(2-fluorophenyl)butanamide] | 36
2 | Cc1cccc(C)c1NC(=O)CN1CCN(CC(O)CNC(=O)c2ccccc2F)CC1 (stereo not drawn) [N-(2,6-dimethylphenyl)-2-(4-{3-[(2-fluorophenyl)carbonylamino]-2-hydroxypropyl}piperazinyl)acetamide] | 24
3 | Cc1cccc(C)c1NC(=O)CN1CCN(CC(O)CC2CCCCC2)CC1 (stereo not drawn) [N-(2,6-dimethylphenyl)-2-[4-(3-cyclohexyl-2-hydroxypropyl)piperazinyl]acetamide] | 8
